Experimental findings from patent US20140243374A1, “Novel Sulfonamides” (The Brigham and Women's Hospital, Inc., priority 2011, published 2014) are described below.

For series [1], the target named is T1, γ-secretase (cleavage of APP, Aβ42) (Homo sapiens, UniProt P49768).
T1 construct: endogenous in cells; host or cells: HEK AP-GL-T16 luciferase reporter cells (tetracycline-induced APP substrate)
Kind of series: Aβ (1-42) cellular assay (Aβ ELISA, HEK AP-GL-T1 6 cells). Conditions: for inhibition at 1 µM: at 1 μM (concentration in brackets); for IC50: cellular Aβ42 ELISA, 24 h compound treatment. The series is classed as cell-based. In short, it runs like this:
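HEK AP-GL-T1 6 cells, with APP processing induced by tetracycline at compound addition 24 h post-plating. After 24 h of treatment, Aβ42 in conditioned medium (protease inhibitors added, frozen) was quantified by fluorometric sandwich ELISA (ex 460/em 560 nm) against an Aβ peptide standard curve.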

For series [2], the target named is T2, γ-secretase (Notch cleavage activity) (Homo sapiens, UniProt P49768).
T2 construct: endogenous in cells; host or cells: SUP-T1 cells
Kind of series: Cleaved Notch1 Sandwich ELISA (SUP-T1 cell line). The series is classed as cell-based. Conditions: for IC50: SUP-T1 cells, 16 h; for Notch Elisa/Aβ42: ratio Notch Elisa IC50 to Aβ42 IC50. In short, it runs like this:
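SUP-T1 cells endogenously express a truncated Notch fragment that serves as γ-secretase substrate. Cells at 1.0×10^6 cells/mL in RPMI-1640 with 10% FBS were treated 16 h with serially diluted compounds in DMSO. Cleaved Notch intracellular domain was quantified by sandwich ELISA on equal protein amounts.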
On the technique in general: An ELISA detects its analyte on a solid surface through an enzyme-linked reagent.

“And” between values parts separate entries of the source, which are not always exact repeats. Equal values may be shown once.

One may read the melting point as the temperature of the solid-liquid transition. Compound `COc1ccc(CN(C2CCOCC2)S(=O)(=O)c2ccc(Cl)cc2)cc1C(=O)O` [Example 8, 5-((4-Chloro-N-(tetrahydro-2H-pyran-4-yl)phenylsulfonamido)methyl)-2-methoxy-benzoic acid] showed a melting point of 174 to 176 °C. Moreover, the inhibition at 1 µM in series [1] (read-out: Aβ42 % Inh) is 0%.

In the case of `O=C(O)c1ccc(CN(C2CCCCC2)S(=O)(=O)c2ccc(F)cc2)cc1` [Example 9, 4-((N-cyclohexyl-4-fluorophenylsulfonamido)methyl)benzoic acid], the melting point was in the range of 218 to 220 °C. Besides, the inhibition at 1 µM in series [1] (read-out: Aβ42 % Inh) turned out to be 0%.

`CSc1ccc(CN(C2CCOCC2)S(=O)(=O)c2ccc(Cl)cc2)cc1` [Example 10, 4-Chloro-N-(4-(methylthio)benzyl)-N-(tetrahydro-2H-pyran-4-yl)benzene-sulfonamide]: the melting point lay in the range of 124 to 127 °C. Besides, in series [1] (read-out: Aβ42 % Inh), the inhibition at 1 µM was 0%.

As to `CS(=O)(=O)c1ccc(CN(C2CCOCC2)S(=O)(=O)c2ccc(Cl)cc2)cc1` [Example 11, 4-Chloro-N-(4-(methylsulfonyl)benzyl)-N-(tetrahydro-2H-pyran-4-yl)benzene-sulfonamide], the melting point was 158 to 160 °C. Also, the inhibition at 1 µM in series [1] (read-out: Aβ42 % Inh) was 0%.

Consider `O=S(=O)(c1ccc(Cl)cc1)N(Cc1ccc(OC2CCOCC2)nc1)C1CCOCC1` [Example 13, 4-Chloro-N-(tetrahydro-2H-pyran-4-yl)-N-((6-(tetrahydro-2H-pyran-4-yloxy)-pyridin-3-yl)methyl)benzenesulfonamide], for which the melting point lay within 123 to 125 °C. In series [1] (read-out: Aβ42 % Inh), the inhibition at 1 µM was found to be 0%.

In turn, `COC(=O)c1cc(CN(CC2CCOCC2)S(=O)(=O)c2ccc(Cl)cc2)ccc1OC` [Example 16, Methyl 5-((4-chloro-N-((tetrahydro-2H-pyran-4-yl)methyl)phenylsulfonamido)-methyl)-2-methoxybenzoate] came in with a melting point of 118 to 119 °C. In addition, the inhibition at 1 µM in series [1] (read-out: Aβ42 % Inh) came out at 0%.

As to `COc1ccc(CN(CC2CCOCC2)S(=O)(=O)c2ccc(Cl)cc2)cc1C(=O)O` [Example 17, 5-((4-Chloro-N-((tetrahydro-2H-pyran-4-yl)methyl)phenylsulfonamido)methyl)-2-methoxybenzoic acid], the melting point was 158 to 159 °C. Moreover, the inhibition at 1 µM in series [1] (read-out: Aβ42 % Inh) was found to be 14%.

Regarding `COC(=O)c1ccc(CN(CC2CCOCC2)S(=O)(=O)c2ccc(Cl)cc2)cc1` [Example 18, Methyl 4-((4-chloro-N-((tetrahydro-2H-pyran-4-yl)methyl)phenylsulfonamido)-methyl)benzoate], the melting point was 115 to 117 °C. Besides, the inhibition at 1 µM in series [1] (read-out: Aβ42 % Inh) stood at 94%.

In turn, `O=C(O)c1ccc(CN(CC2CCOCC2)S(=O)(=O)c2ccc(Cl)cc2)cc1` [Example 19, 4-((4-Chloro-N-((tetrahydro-2H-pyran-4-yl)methyl)phenylsulfonamido)methyl)-benzoic acid] gave a melting point of 188 to 190 °C. Moreover, the inhibition at 1 µM in series [1] (read-out: Aβ42 % Inh) came out at 13%.

`CC[C@H](C1CCCC1)N(Cc1ccc(C(=O)OC)cc1)S(=O)(=O)c1ccc(Cl)cc1` [Example 22, (R)-Methyl 4-((4-chloro-N-(1-cyclopentylpropyl)phenylsulfonamido)methyl)benzoate]: the melting point was in the range of 81 to 83 °C. Moreover, the inhibition at 1 µM in series [1] (read-out: Aβ42 % Inh) worked out at 0%.

In turn, `CC[C@H](C1CCCC1)N(Cc1ccc(C(=O)O)cc1)S(=O)(=O)c1ccc(Cl)cc1` [Example 23, (R)-4-((4-Chloro-N-(1-cyclopentylpropyl)phenylsulfonamido)methyl)benzoic acid] registered a melting point of 67 to 69 °C. For the same compound, in series [1] (read-out: Aβ42 % Inh), the inhibition at 1 µM was 0%.

Take `O=C(O)c1ccc(CN(C2CCCCC2O)S(=O)(=O)c2ccc(Cl)cc2)cc1` (stereo not shown) [Example 24, 4-((4-Chloro-N-(2-hydroxycyclohexyl)phenylsulfonamido)methyl)benzoic acid]: the melting point was 218 to 219 °C. The inhibition at 1 µM in series [1] (read-out: Aβ42 % Inh) is 51%.

In general, IC50 refers to the concentration at which inhibition is half-maximal. `COC(=O)c1ccc(CN(C2CCCCC2O)S(=O)(=O)c2ccc(Cl)cc2)cc1` (stereo not shown) [Example 25, Methyl 4-((4-chloro-N-(2-hydroxycyclohexyl)phenylsulfonamido)methyl)benzoate]: the melting point lay within 162 to 164 °C. Moreover, the half-maximal inhibitory concentration (IC50) in series [1] is 0.0178 µM.

For `N#Cc1ccc(CN(C2CCC2)S(=O)(=O)c2ccc(Cl)cc2)c(F)c1` [Example 26, 4-Chloro-N-(4-cyano-2-fluorobenzyl)-N-cyclobutylbenzenesulfonamide], the melting point lay within 125 to 127 °C. Besides, the inhibition at 1 µM in series [1] (read-out: Aβ42 % Inh) was found to be 54%.

In turn, `Cc1ccc(S(=O)(=O)N(Cc2ccc(C#N)cc2F)C2CCC2)cc1` [Example 27, N-(4-Cyano-2-fluorobenzyl)-N-cyclobutyl-4-methylbenzenesulfonamide] yielded a melting point of 146 to 147 °C. Besides, the inhibition at 1 µM in series [1] (read-out: Aβ42 % Inh) was found to be 37%.

Regarding `N#Cc1ccc(CN(C2CCCC2)S(=O)(=O)c2ccc(Cl)cc2)c(F)c1` [Example 28, 4-Chloro-N-(4-cyano-2-fluorobenzyl)-N-cyclopentylbenzenesulfonamide], the melting point was in the range of 176 to 177 °C. This compound came in with a concentration for half-maximal inhibition (IC50) in series [1] of 0.301 µM.

Compound `Cc1ccc(S(=O)(=O)N(Cc2ccc(C#N)cc2F)C2CCCC2)cc1` [Example 29, N-(4-Cyano-2-fluorobenzyl)-N-cyclopentyl-4-methylbenzenesulfonamide] registered a melting point of 178 to 179 °C. Moreover, the inhibition at 1 µM in series [1] (read-out: Aβ42 % Inh) was 0%.

Regarding `O=C(O)c1ccc(CN([C@H]2CCCC[C@@H]2O)S(=O)(=O)c2ccc(Cl)cc2)cc1` [Example 30, 4-((4-Chloro-N-((1S,2S)-2-hydroxycyclohexyl)phenylsulfonamido)methyl)benzoic acid], the melting point fell in the range of 218 to 219 °C. In addition, in series [1] (read-out: Aβ42 % Inh), the inhibition at 1 µM was 15%.

Compound `COC(=O)c1ccc(CN([C@H]2CCCC[C@@H]2O)S(=O)(=O)c2ccc(Cl)cc2)cc1` [Example 31, Methyl 4-((4-chloro-N-((1S,2S)-2-hydroxycyclohexyl)phenylsulfonamido)methyl)benzoate] gave a melting point of 150 to 152 °C. Besides, the IC50 in series [1] is 0.199 µM.

Compound `CC1CCCCC1N(Cc1ccc(C(=O)NC(C)(C)C(=O)O)cc1)S(=O)(=O)c1ccc(C(F)(F)F)nc1` (stereo not shown) [Example 33, 2-Methyl-2-(4-((N-(2-methylcyclohexyl)-6-(trifluoromethyl)pyridine-3-sulfonamido)methyl)benzamido)propanoicacid] gave a melting point of 131 to 132 °C. For the same compound, in series [1] (read-out: Aβ42 % Inh), the inhibition at 1 µM was found to be 56%.

Turning to `O=C(O)c1ccc(CN(C2CCCCC2)S(=O)(=O)c2ccc(Cl)cc2)cc1` [Example 45, 4-((4-chloro-N-cyclohexylphenylsulfonamido)methyl)benzoic acid], the melting point lay in the range of 135 to 137 °C. Also, the IC50 in series [1] is 0.216 µM and 0.0474 µM and 0.18 µM. Besides, in series [2], 35.9 µM corresponded to half-maximal inhibition (IC50) and the “Notch Elisa/Aβ42” value is on record as 243.

The compound `O=C(O)c1ccc(CN(C2CCCCC2O)S(=O)(=O)c2ccc(Cl)cc2)c(F)c1F` (stereo not shown) [Example 67, 4-((4-Chloro-N-(2-hydroxycyclohexyl)phenylsulfonamido)methyl)-2,3-difluorobenzoic acid] gave a melting point of 134 to 136 °C. For the same compound, the inhibition at 1 µM in series [1] (read-out: Aβ42 % Inh) worked out at 11%.

`O=C(O)c1ccc(CN(C2CCCCC2)S(=O)(=O)c2ccc(Cl)cc2)c(F)c1F` [Example 71, 4-((4-Chloro-N-cyclohexylphenylsulfonamido)methyl)-2,3-difluorobenzoic acid] registered a melting point of 111 to 112 °C. Besides, in series [1], the IC50 is 0.519 µM.

As for `O=C(O)c1ccc(CN(C2CCCCC2F)S(=O)(=O)c2ccc(Cl)cc2)c(F)c1F` (stereo not shown) [Example 72, 4-((4-Chloro-N-(2-fluorocyclohexyl)phenylsulfonamido)methyl)-2,3-difluorobenzoic acid], the melting point lay in the range of 108 to 109 °C. The same compound displayed a half-inhibitory concentration (IC50) in series [1] of 0.0485 µM. Also, in series [2], the IC50 was found to be 3.54 µM and the “Notch Elisa/Aβ42” value worked out at 73.

On to `C[C@H](CO)NC(=O)c1ccc(CN(C2CCCCC2F)S(=O)(=O)c2ccc(Cl)cc2)c(F)c1F` (stereo partly drawn) [Example 77, 4-((4-Chloro-N-(2-fluorocyclohexyl)phenylsulfonamido)methyl)-2,3-difluoro-N—((R)-1-hydroxypropan-2-yl)benzamide], for which the melting point was in the range of 126 to 128 °C. Besides, the half-maximal inhibitory concentration (IC50) in series [1] is 0.00424 µM and 0.00336 µM. Also, in series [2], the IC50 stood at 1.02 µM and the “Notch Elisa/Aβ42” value is listed as 268.

In turn, `O=C(O)c1ccc(CN(C2CCCCC2Cl)S(=O)(=O)c2ccc(Cl)cc2)cc1` (stereo not shown) [Example 81, 4-((4-Chloro-N-(2-chlorocyclohexyl)phenylsulfonamido)methyl)benzoic acid] had a melting point of 158 to 160 °C. For the same compound, the inhibition at 30 µM in series [1] (at 30 μM (concentration in brackets), read-out: Aβ42 % Inh) was 0%.
